In US9950048B2, “Immunogenic epitopes for immunotherapy” (immatics biotechnologies GmbH, priority 2007, dated 2018):
Ends that are not written are not given here.

Assays:
[1] = tested on: CD8+ T cells of healthy HLA-A*02+ donors; assay: In vitro priming of CD8+ T cells with pMHC/anti-CD28 coated beads (high density), tetramer analysis; format: cell-based, human; settings: for Immunogenicity detected: at least one well with ≥1% specific tetramer+ among CD8+ T-cells and ≥10× median of negative controls; for Positive donors/donors tested / Positive donors/donors tested (%) / Positive wells/wells tested / Positive wells/wells tested (%): high density beads
Experimental: To perform in vitro stimulations by artificial antigen presenting cells (aAPC) loaded with peptide-MHC complex (pMHC) and anti-CD28 antibody, first PBMCs (peripheral blood mononuclear cells) were isolated from fresh HLA-A*02+ buffy coats by using standard density gradient separation medium (PAA, Cölbe, Germany). Buffy coats were either obtained from the Blood Bank Tübingen or from the Katharinenhospital Stuttgart. Isolated PBMCs were incubated overnight in T-cell medium (TCM) for human in vitro priming consisting of RPMI-Glutamax (Invitrogen, Karlsruhe, Germany) supplemented with 10% heat inactivated human AB serum (PAA, Cölbe, Germany), 100 U/ml Penicillin/100 μg/ml Streptomycin (Cambrex, Verviers, Belgium), 1 mM sodium pyruvate (CC Pro, Neustadt, Germany) and 20 μg/ml Gentamycin (Cambrex). CD8+ lymphocytes were isolated using the CD8+ MACS positive selection kit (Miltenyi, Bergisch Gladbach, Germany) according to the manufacturer's instructions. Obtained CD8+ T-cells were incubated until use in TCM supplemented with 2.5 ng/ml IL-7 (PromoCell, Heidelberg, Germany) and 10 U/ml IL-2 (Chiron, Munich, Gemany). Generation of pMHC/anti-CD28 coated beads, T-cell stimulations and readout was performed as described before (Walter, S, et al., 2003, J. Immunol., 171, 4974-4978) with minor modifications. Briefly, biotinylated recombinant HLA-A*0201 molecules lacking the transmembrane domain and being biotinylated at the carboxy terminus of the heavy chain were produced following a method described by (Altman, J D, et al., 1996, Science, 274, 94-96). The purified costimulatory mouse IgG2a anti human CD28 Ab 9.3 (Jung, G, Ledbetter, J A, and Muller-Eberhard, H J; 1987, Induction of cytotoxicity in resting human T lymphocytes bound to tumor cells by antibody heteroconjugates, Proc Natl Acad Sci USA, 84, 4611-4615) was chemically biotinylated using Sulfo-N-hydroxysuccinimidobiotin as recommended by the manufacturer (Perbio, Bonn, Germany).
800,000 beads/200 μl were coated in 96-well plates in the presence of 600 ng biotin anti-CD28 plus 200 ng relevant biotin-pMHC (high density beads) or 2 ng relevant plus 200 ng irrelevant (pMHC library) MHC (low density beads). Stimulations were initiated in 96-well plates by conincubating 1×10^6 CD8+ T cells with 2×10^5 washed coated beads in 200 μl TCM supplemented with 5 ng/ml IL-12 (PromoCell) for 3-4 days at 37° C. Half of the medium was then exchanged by fresh TCM supplemented with 80 U/ml IL-2 and incubation was continued for 3-4 days at 37° C. This stimulation cycle was performed for a total of three times. Finally, tetrameric analyses were performed with fluorescent MHC tetramers (produced as described by (Altman, J D, et al., 1996, Science, 274, 94-96)) plus antibody CD8-FITC clone SK1 (BD, Heidelberg, Germany) on a four-color FACSCalibur (BD). Peptide specific cells were calculated as percentage of total CD8+ T cells. Evaluation of tetrameric analysis was performed using the software FCS Express (De Novo Software). In vitro priming of specific tetramer+CD8+ lymphocytes was detected by appropriate gating and by comparison to negative control stimulations.
Peptides of the present invention were tested together with peptides of known in vivo immunogenicity for comparison. The CEA-005 peptide that was optimised for in vitro T-cell induction (Fong, L, et al., 2001, J. Immunol., 166, 4254-4259) served as control.
Results of in vitro immunogenicity experiments conducted by immatics are summarised here. Results shown have been obtained by stimulation of CD8+ cells with high density beads. As different human serum lots may highly affect the immunogenicity results, only assays in which one and the same serum lot was used, were evaluated together.

[2] = Particle size/shape measurement and analytical HPLC of reconstituted IMA910 suspension; format: physicochemical; settings: analytical HPLC of suspension
Experimental: Particle size distribution and particle shape measurement of the particles obtained after reconstitution have been performed by capturing direct images of each individual particle in the range of 0.25 to 100 μm followed by image analysis.
Furthermore, analytical HPLC was performed for a closer characterization of the obtained suspension.
IMA910 is dissolved in 700 μL sodium hydrogen carbonate (4.2%).

[3] = tested on: monocyte-depleted PBMCs of one healthy donor; assay: In vitro priming with peptide-pulsed autologous DCs, IFNγ ELISPOT read-out; format: cell-based, human
Experimental: FIG. 6 depicts the in vitro immunogenicity of TGFBI-004 as detected by IFNγ ELISPOT after five stimulation cycles.
Cells were primed and restimulated repeatedly with TGFBI-004 and then incubated with relevant TGFBI-004 (Well 1, 2, 3 and 4) and irrelevant (Neg. control) peptide, respectively. The analysis after IFNγ ELISPOT was performed on an ELISPOT Reader (CTL, Cleveland, USA). PHA-Ionomycin served as positive control. Numbers indicate the count of positive spots.
(§1) Priming and expansion of specific human CD4+ and CD8+ cells were assayed in vitro by priming of monocyte-depleted PBMCs with autologous DCs and restimulation with autologous PBMCs. […] As a read-out system, IFNγ production upon short term restimulation was assessed by ELISPOT and flow cytometry. T cells were analysed after […] stimulations by ELISPOT and intracellular IFNγ staining plus CD4-FITC and CD8-PerCP to determine the percentage of IFNγ-producing cells in specific T-cell subpopulations. In this experiment, cells stimulated with TGFBI-004 peptide from different wells were pooled, incubated with irrelevant peptide for the read-out and performed as negative controls. […]
(§2) To generate CD4+ T cells, 3 Million PBMCs/PBLs were stimulated with 2×10^5 autologuous DCs. […] After being washed with DC medium, cell number was determined. […]

[4] = tested on: monocyte-depleted PBMCs of one healthy donor; assay: In vitro priming with peptide-pulsed autologous DCs, intracellular IFNγ staining (ICS) read-out; format: cell-based, human
Experimental: FIGS. 7a and 7b depict the in vitro immunogenicity of TGFBI-004 as detected by ICS after five stimulation cycles.
Cells were primed with TGFBI-004-loaded autologous DCs and restimulated repeatedly with autologous PBMCs plus TGFBI-004. For the read-out cells were incubated with relevant TGFBI-004 (Well 1, 2, 3 and 4) and irrelevant (Neg. Control) peptide, respectively. Additionally to the intracellular IFNγ staining, cells were also stained with CD4-FITC and OCD8-PerCP antibodies. The analysis was performed on a four-color FACSCalibur cytometer (BD Biosciences, Germany).
as §1, §2

| Substance | Immunogenicity detected [1] | Positive donors/donors tested [1] | Positive donors/donors tested (%) [1] | Positive wells/wells tested [1] | Positive wells/wells tested (%) [1] | amount of peptide found in the particles [2] | induction of CD4+ and CD8+ T cell responses ([3]; one donor tested, autologous system) | T-cell lines with T-cell responses detected via ELISPOT ([3]; one healthy donor, IFNγ ELISPOT) | T-cell lines with specific IFNγ producing CD4+ and/or CD8+ cells via ICS [4] |
| --- | --- | --- | --- | --- | --- | --- | --- | --- | --- |
| ALTTLMHQL (listed as Homo sapiens) [PTP-001] | yes | – | – | – | – | – | – | – | – |
| SLWAGVVVL (listed as Homo sapiens) [CHI-001] | yes | – | – | – | – | – | – | – | – |
| KIFDEILVNA [TOP-001] | yes | 2/5 | (40%) | 7/72 | (10%) | low amounts | – | – | – |
| ALSNLEVTL [Peptide C20-001] | yes | 1/5 | (20%) | 1/60 | (2%) | – | – | – | – |
| KLMDLDVEQL [PCN-001] | yes | 3/4 | (75%) | 4/42 | (10%) | – | – | – | – |
| TPPIDAHTRNLLRNH (listed as Homo sapiens) [TGFBI-004] | – | – | – | – | – | – | able to elicit CD4+ and CD8+ T cell responses | 2 out of 4 | 3 out of 4 |
| CCN-001: 9 amino acid peptide in vaccine IMA910, supplied as chloride salt (LLGATCMFV; also: chloride salt) [reference compound] | yes | 5/5 | (100%) | 42/54 | (78%) | low amounts | – | – | – |
| KLTDIQIEL (listed as Homo sapiens) [JAK-001] | yes | – | – | – | – | – | – | – | – |
